The numbers were not newly measured in patent EP2391353B1, “PHARMACEUTICAL COMPOSITIONS OF TRIMETAZIDINE” (Lupin Limited, priority 2009, dated 2010), which cites them from elsewhere.

For this data set the following is noted: administered orally.

As to `COc1ccc(CN2CCNCC2)c(OC)c1OC.Cl.Cl` [Trimetazidine dihydrochloride, 1-(2,3,4-trimethoxybenzyl)-piperazine dihydrochloride], the Tmax result is reported as “around 1.8 ± 0.7 hours” and the plasma half-life entry is given as “around 6.0 ± 1.4 hours”.
